According to ChEMBL document CHEMBL6083280, “De Novo Discovery of a Noncovalent Cell-Penetrating Bicyclic Peptide Inhibitor Targeting SARS-CoV-2 Main Protease” (J Med Chem, 2024):
Calls of active or inactive are those of the source. No cut-off for these calls is given here. Positions of bridges follow the written chain, without caps; N, C: chain ends. Residues, ends and D or L forms follow the SMILES beside them.

How the values were obtained:
[1] = target: T1, Replicase polyprotein 1ab (Severe acute respiratory syndrome coronavirus 2, UniProt P0DTD1); assay: Inhibition of N-terminal his-tagged SARS-CoV-2 Main protease expressed in Escherichia coli BL21 (DE3) using Dabcyl-TSAVLWSGFRICMK-Edans as substrate preincubated for 10 mins by microplate reader analysis
[2] = target: T1, Replicase polyprotein 1ab; assay: Binding affinity to N-terminal his-tagged SARS-CoV-2 Main protease expressed in Escherichia coli BL21 (DE3) assessed as dissociation constant by ITC analysis
SARS-CoV-2 [3] = assay: Antiviral activity against SARS-CoV-2 infected in human Caco-2 cells assessed as inhibition of viral infection preincubated for 1 hr followed by viral infection measured after 48 hrs by CQ1 confocal quantitative image cytometer analysis; type: functional, organism-based; conditions: for EC50: Severe acute respiratory syndrome coronavirus 2, Caco-2; for Activity: Severe acute respiratory syndrome coronavirus 2, time 49.0 hrs
[4] = Metabolic stability in mouse serum assessed as half life by HPLC analysis; type: ADME, cell-free
[5] = (§1) Cytotoxicity against human Caco-2 cells assessed as cell viability at 100 uM incubated for 48 hrs by CCK-8 assay; type: toxicity, cell-based; conditions: Caco-2 cells
SARS-CoV-2 [6] = assay: Antiviral activity against SARS-CoV-2; type: functional, organism-based; conditions: Severe acute respiratory syndrome coronavirus 2
Caco-2 = assay: as §1; type: toxicity, cell-based; conditions: caco-2, 48 h, 100 µM
[7] = Half life in male CD-1 mouse at 4 mg/kg, iv by LC-MS/MS analysis; type: ADME, organism-based; conditions: in vivo
[8] = Initial plasma concentration in male CD-1 mouse at 4 mg/kg, iv by LC-MS/MS analysis; type: ADME, organism-based
[9] = Drug uptake in human Caco-2 cells at 5 uM measured after 3 hrs by live confocal microscopic analysis; type: ADME, cell-based; conditions: caco-2, 3 h
[10] = Drug uptake in human HeLa cells at 5 uM measured after 3 hrs by live confocal microscopic analysis; type: ADME, cell-based
[11] = Volume of distribution at steady state in male CD-1 mouse at 4 mg/kg, iv by LC-MS/MS analysis; type: ADME, organism-based; conditions: in vivo, read-out: Vdss
[12] = AUC (0 to infinity) in male CD-1 mouse at 4 mg/kg, iv by LC-MS/MS analysis; type: ADME, organism-based; conditions: in vivo
[13] = Clearance in male CD-1 mouse at 4 mg/kg, iv by LC-MS/MS analysis; type: ADME, organism-based; conditions: in vivo
[14] = target: Ubiquitin carboxyl-terminal hydrolase 14 (Homo sapiens) (UniProt P54578); assay: Inhibition of USP14 (unknown origin)
[15] = target: Cathepsin B (Homo sapiens) (UniProt P07858); assay: Inhibition of cathepsin B (unknown origin)
SARS-CoV-2 [16] = assay: Antiviral activity against SARS-CoV-2 Omicron; type: functional, organism-based; conditions: Severe acute respiratory syndrome coronavirus 2, Omicron

Sequence of Ubiquitin carboxyl-terminal hydrolase 14 (Homo sapiens) (P54578 whole entry): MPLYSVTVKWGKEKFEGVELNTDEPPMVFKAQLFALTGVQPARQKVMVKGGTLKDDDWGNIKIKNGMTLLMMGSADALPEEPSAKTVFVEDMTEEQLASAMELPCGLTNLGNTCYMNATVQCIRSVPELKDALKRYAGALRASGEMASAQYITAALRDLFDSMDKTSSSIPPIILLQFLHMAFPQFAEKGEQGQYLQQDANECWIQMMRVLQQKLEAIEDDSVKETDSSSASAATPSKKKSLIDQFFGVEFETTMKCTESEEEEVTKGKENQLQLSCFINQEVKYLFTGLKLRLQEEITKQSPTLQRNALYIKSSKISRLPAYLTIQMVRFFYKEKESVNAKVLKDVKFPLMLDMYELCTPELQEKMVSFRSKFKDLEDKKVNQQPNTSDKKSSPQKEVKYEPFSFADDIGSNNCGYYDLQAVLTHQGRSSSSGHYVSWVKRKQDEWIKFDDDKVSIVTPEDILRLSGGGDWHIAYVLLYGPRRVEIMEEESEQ

| SMILES | IC50 [1] [nM] | Kd [2] [nM] | EC50 (SARS-CoV-2 [3]) [nM] | Activity (SARS-CoV-2 [3]) | EC50 (SARS-CoV-2 [6]) [nM] | also measured |
| --- | --- | --- | --- | --- | --- | --- |
| CC(C)C[C@@H]1NC(=O)[C@H](CC(N)=O)NC(=O)[C@H](Cc2ccc(O)cc2)NC(=O)CSC[C@@H](C(=O)NCC(N)=O)NC(=O)[C@H](Cc2ccc(O)cc2)NC(=O)[C@H](CCC(N)=O)NC(=O)[C@H]([C@@H](C)O)NC(=O)[C@H]([C@@H](C)O)NC(=O)[C@H](Cc2c[nH]c3ccccc23)NC(=O)[C@H](CC(=O)O)NC(=O)[C@H]([C@@H](C)O)NC(=O)[C@H](CCCNC(=N)N)NC(=O)[C@H](CCC(N)=O)NC(=O)[C@H](Cc2ccccc2)NC1=O ({CH2CO}-YNLFQRTDWTTQYCG-NH2; thioether N-14) | 500 | 1120 | 4890 | inactive |  | half-life [4]: 1.6 h; CC50 at 48 h [5]: > 100000 nM |
| Cc1cccc(C)c1OCC(=O)N[C@@H](Cc1ccccc1)[C@@H](O)C[C@H](Cc1ccccc1)NC(=O)[C@H](C(C)C)N1CCCNC1=O [LOPINAVIR] |  |  |  |  | 8750 | Activity (Caco-2): Toxic |
| CC(C)c1nc(CN(C)C(=O)N[C@H](C(=O)N[C@@H](Cc2ccccc2)C[C@H](O)[C@H](Cc2ccccc2)NC(=O)OCc2cncs2)C(C)C)cs1 [RITONAVIR] |  |  |  |  | 7540 |  |
| CC(C)[C@@H]1NC(=O)[C@@H](Cc2ccc(O)cc2)NC(=O)CC[C@@H](C(N)=O)NC(=O)[C@@H]2CCCN2C(=O)[C@@H]2CCCN2C(=O)C2CSc3c(F)c(F)c(c(F)c3F)-c3c(F)c(F)c(c(F)c3F)SC[C@H](NC1=O)C(=O)N[C@@H](Cc1ccccc1)C(=O)N[C@@H](Cc1c[nH]cn1)C(=O)N[C@@H]([C@@H](C)O)C(=O)N[C@@H]([C@@H](C)O)C(=O)N[C@@H]([C@@H](C)O)C(=O)N1CCC[C@H]1C(=O)N[C@@H](Cc1ccccc1)C(=O)N2 | 4510 |  | 8620 |  |  | half-life [7]: 0.499 h; C0 [8]: 12100 ng/mL; Drug uptake [9]: Active; Drug uptake [10]: Active; Vd [11]: 0.511 L/kg; AUC(0-inf) [12]: 2530 ng·h/mL; clearance [13]: 26.5 mL/min/kg; half-life [4]: 8 h; Activity (Caco-2): Non-toxic |
| CC(C)C[C@@H]1NC(=O)[C@H](CC(N)=O)NC(=O)[C@H](Cc2ccc(O)cc2)NC(=O)CSC[C@@H](C(=O)NCC(N)=O)NC(=O)[C@H](Cc2ccccc2)NC(=O)[C@H](CCCNC(=N)N)NC(=O)[C@H](CCC(N)=O)NC(=O)[C@H](CC(N)=O)NC(=O)[C@H](Cc2c[nH]c3ccccc23)NC(=O)[C@H](CC(=O)O)NC(=O)[C@H]([C@@H](C)O)NC(=O)[C@H](CCCNC(=N)N)NC(=O)[C@H](CCC(N)=O)NC(=O)[C@H](Cc2ccccc2)NC1=O ({CH2CO}-YNLFQRTDWNQRFCG-NH2; thioether N-14) | 250 | 2540 |  | inactive |  |  |
| CC(C)C[C@@H]1NC(=O)[C@H](CC(N)=O)NC(=O)[C@H](Cc2ccc(O)cc2)NC(=O)CSC[C@@H](C(=O)NCC(N)=O)NC(=O)[C@H](Cc2ccccc2)NC(=O)[C@H](CO)NC(=O)[C@H](CO)NC(=O)[C@H](CO)NC(=O)[C@H](Cc2c[nH]c3ccccc23)NC(=O)[C@H](CC(=O)O)NC(=O)[C@H](C)NC(=O)[C@H](CCCNC(=N)N)NC(=O)[C@H](CCC(N)=O)NC(=O)[C@H](Cc2ccccc2)NC1=O ({CH2CO}-YNLFQRADWSSSFCG-NH2; thioether N-14) | 300 | 6730 |  | inactive |  |  |
| CC(C)(C)[C@H](NC(=O)C(F)(F)F)C(=O)N1C[C@H]2[C@@H]([C@H]1C(=O)N[C@H](C#N)C[C@@H]1CCNC1=O)C2(C)C |  |  |  |  | 32.6 |  |
| CC[C@H](C)[C@@H]1NC(=O)[C@H](Cc2ccc(O)cc2)NC(=O)[C@H](CO)NC(=O)[C@H](CC(C)C)NC(=O)CNC(=O)[C@H](Cc2ccc(O)cc2)NC(=O)[C@H](CO)NC(=O)[C@H](CCC(N)=O)NC(=O)[C@H](Cc2ccccc2)NC(=O)[C@@H](Cc2ccc(O)cc2)NC(=O)CSC[C@@H](C(=O)NCC(N)=O)NC(=O)CNC(=O)[C@@H]2CCCN2C1=O | 460 | 2780 |  | inactive |  |  |
| CC(C)C[C@@H]1NC(=O)[C@H](Cc2ccc(F)c(F)c2)NC(=O)[C@@H]2CCCN2C(=O)[C@H]([C@@H](C)O)NC(=O)[C@H]([C@@H](C)O)NC(=O)[C@H]([C@@H](C)O)NC(=O)[C@H](Cc2c[nH]cn2)NC(=O)[C@H](Cc2cccc(F)c2)NC(=O)[C@H]([C@@H](C)O)NC(=O)[C@H](C(C)C)NC(=O)[C@@H](Cc2ccc(O)cc2)NC(=O)CSC[C@@H](C(=O)NCC(N)=O)NC(=O)[C@@H]2CCCN2C(=O)[C@@H]2CCCN2C1=O | 320 |  | > 100000 |  |  | inhibition [14]: Active; inhibition [15]: Active |
| CC(C)C[C@H](NC(=O)OCc1ccccc1)C(=O)N[C@@H](CC1CCNC1=O)C(O)S(=O)(=O)O (some centres not stated) |  |  |  |  | 4500 |  |
| CC(C)C[C@@H]1NC(=O)[C@H](Cc2ccccc2)NC(=O)[C@@H]2CCCN2C(=O)[C@H]([C@@H](C)O)NC(=O)[C@H]([C@@H](C)O)NC(=O)[C@H]([C@@H](C)O)NC(=O)[C@H](Cc2c[nH]cn2)NC(=O)[C@H](Cc2ccccc2)NC(=O)[C@H]([C@@H](C)O)NC(=O)[C@H](C(C)C)NC(=O)[C@@H](Cc2ccc(O)cc2)NC(=O)CSC[C@@H](C(=O)NCC(N)=O)NC(=O)[C@@H]2CCCN2C(=O)[C@@H]2CCCN2C1=O | 300 | 2750 | 10800 | inactive |  | inhibition [14]: Active; half-life [4]: 5.4 h; CC50 at 48 h [5]: > 100000 nM; inhibition [15]: Active |
| Cn1cnc(Cn2c(=O)[nH]/c(=N\c3cc4cn(C)nc4cc3Cl)n(Cc3cc(F)c(F)cc3F)c2=O)n1 |  |  |  |  |  | EC50 (SARS-CoV-2 [16]): 220 nM |
| CC(C)C[C@@H]1NC(=O)[C@H](Cc2ccccc2)NC(=O)[C@@H](Cc2ccc(O)cc2)NC(=O)CSC[C@@H](C(=O)NCC(N)=O)NC(=O)CNC(=O)[C@H](Cc2ccccc2)NC(=O)[C@H]([C@@H](C)O)NC(=O)[C@H](Cc2ccc(O)cc2)NC(=O)[C@H](CCCNC(=N)N)NC(=O)[C@H](Cc2ccc(O)cc2)NC(=O)[C@@H]2CCCN2C(=O)[C@@H]2CCCN2C1=O | 1450 | 4000 |  | inactive |  |  |
